Laboratory results reported in US20170152245A1 (National Taiwan University, priority 2015, published 2017).

Key:
[1] = test system: human platelet suspension; assay: U46619-induced platelet aggregation in human platelet suspension; assay type: cell-based; details: for IC50: Homo sapiens, Platelet, U46619-induced aggregation, platelet suspension, read-out: P.S(U46619) IC50
Description: Human platelet suspension (PS) was prepared according to the method described previously. Briefly, blood sample, freshly obtained from healthy volunteers who had taken no medications during the preceding 2 weeks, was treated with acid citrate/dextrose (ACD) in a volume ratio of 9:1. After centrifugation at 120 g, 25° C. for 9 min, platelet-rich plasma was transferred into another plastic tube and incubated with heparin (6.4 U/ml) as well as prostaglandin E1 (1 μM). Platelets were spun down by centrifugation at 500 g, 25° C. for 8 min and subsequently washed two times with Tyrode solution (NaH2PO4 0.4 mM; NaCl 136.9 mM; KCl […]; NaHCO3 11.9 mM; CaCl2 2 mM; MgCl2 2.1 mM; glucose 11.1 mM; BSA 3.5 mg/ml; pH 7.35-7.4). The washed platelets were finally suspended in Tyrode's solution and the platelet count was adjusted to 3.75×10^8 platelets/ml. For platelet-rich plasma (PRP) preparation, whole blood was anticoagulated with 1/10 vol of sodium citrate (3.8%, w/v) and centrifuged at 150 g, 25° C. for 9 min.
Platelet aggregation was measured turbidimetrically with a Lumi-aggregometer (Payton Scientific) at 37° C. under stirring condition (900 rpm). Platelet suspensions were prewarmed to 37° C. for 2 min in a silicone-treated glass cuvette. Nstpbp5185 was added 3 min before the addition of platelet-aggregation inducers. The extent of platelet aggregation was determined by recording the increase of light transmission relative to that of control (maximal aggregation, as 100%) for 6 min after the addition of inducer. The final volume and platelet count for measuring platelet aggregation were 500 μl and 3×10^8/ml, respectively.

mice carotid artery = assay: FeCl3-induced thrombus formation in mice carotid artery; assay type: in vivo
Description: FIG. 14 The antithrombotic activity of nstpbp5185 in FeCl3-induced thrombi formation in mice carotid artery. (A) Mice were intravenously administered with Heparin (10 or 100 U kg^−1), Aspirin (40 or 80 μg g^−1), or different doses of nstpbp5185 (B). After 5 min, FeCl3 injury was induced by a filter paper saturated with ferric chloride solution (10%). After removal of the paper, carotid blood flow (ml min^−1) was monitored continuously until thromboembolism formation or for 60 min. (C) Mice were orally administered with different doses of Aspirin and nstpbp5185 (D). Both drugs were suspended in 1% CMC. Blood flow monitoring were recorded used analyzed Labchart software (AD instruments). Data are presented as the mean±SEM (n≧3). **P<0.01 and ***P<0.001 as compared with the vehicle control (DMSO).
Mice were intravenously or orally administered with different doses of nstpbp5185.

| IC50 [1] [µM] | Compound | also measured |
| --- | --- | --- |
| 6.7 | Cc1ccc(-c2nc3cc(Cl)ccc3n2Cc2ccccc2F)o1 [Example 48a, 5-chloro-1-(2-fluorobenzyl)-2-(5-methyl-2-furyl)benzimidazole] | – |
| 3.11 | Cc1ccc(-c2nc3ccc(Cl)cc3n2Cc2ccccc2F)o1 [Example 48b, 6-chloro-1-(2-fluorobenzyl)-2-(5-methyl-2-furyl)benzimidazole] | – |
| 29.6 | COc1ccc(Cn2c(-c3ccc(C)o3)nc3ccc(Cl)cc32)cc1 [Example 49b, 6-chloro-1-(4-methoxybenzyl)-2-(5-methyl-2-furyl)benzimidazole] | – |
| 38 | COc1cccc(Cn2c(-c3ccc(C)o3)nc3cc(Cl)ccc32)c1 [Example 50a, 5-chloro-1-(3-methoxybenzyl)-2-(5-methyl-2-furyl)benzimidazole] | – |
| 27.4 | COc1cccc(Cn2c(-c3ccc(C)o3)nc3ccc(Cl)cc32)c1 [Example 50b, 6-chloro-1-(3-methoxybenzyl)-2-(5-methyl-2-furyl)benzimidazole] | – |
| 53.4 | Cc1ccc(Cn2c(-c3ccc(C)o3)nc3ccc(Cl)cc32)cc1 [Example 51a, 6-chloro-1-(4-methylbenzyl)-2-(5-methyl-2-furyl)benzimidazole] | – |
| 62.8 | Cc1ccc(Cn2c(-c3ccc(C)o3)nc3cc(Cl)ccc32)cc1 [Example 51b, 5-chloro-1-(4-methylbenzyl)-2-(5-methyl-2-furyl)benzimidazole] | – |
| 29.9 | Cc1cccc(Cn2c(-c3ccc(C)o3)nc3cc(Cl)ccc32)c1 [Example 52a, 5-chloro-1-(3-methylbenzyl)-2-(5-methyl-2-furyl)benzimidazole] | – |
| 5.22 | Cc1cccc(Cn2c(-c3ccc(C)o3)nc3ccc(Cl)cc32)c1 [Example 52b, 6-chloro-1-(3-methylbenzyl)-2-(5-methyl-2-furyl)benzimidazole] | – |
| 6.01 | Cc1ccc(-c2nc3cc(Cl)ccc3n2Cc2ccccc2C)o1 [Example 53a, 5-chloro-1-(2-methylbenzyl)-2-(5-methyl-2-furyl)benzimidazole] | – |
| 3.2 | Cc1ccc(-c2nc3ccc(Cl)cc3n2Cc2ccccc2C)o1 [Example 53b, 6-chloro-1-(2-methylbenzyl)-2-(5-methyl-2-furyl)benzimidazole] | – |
| 5.13 | Cc1ccc(-c2nc3cc(Cl)c(Cl)cc3[nH]2)o1 [Example 54, 5,6-dichloro-2-(5-methyl-2-furyl)benzimidazole] | – |
| 6.98 | Cc1ccc(-c2nc3cc(Cl)c(Cl)cc3n2Cc2ccccc2)o1 [Example 54a, 1-Benzyl-5,6-dichloro-2-(5-methyl-2-furyl)benzimidazole] | – |
| > 50 | Cc1ccc(-c2nc3cc(Cl)c(Cl)cc3n2Cc2ccc([N+](=O)[O-])cc2)o1 [Example 55, 5,6-dichloro-1-(4-nitrobenzyl)-2-(5-methyl-2-furyl)benzimidazole] | – |
| 27 | Cc1ccc(-c2nc3cc(Cl)c(Cl)cc3n2Cc2cccc([N+](=O)[O-])c2)o1 [Example 56, 5,6-dichloro-1-(3-nitrobenzyl)-2-(5-methyl-2-furyl)benzimidazole] | – |
| > 50 | Cc1ccc(-c2nc3cc(Cl)c(Cl)cc3n2Cc2ccccc2[N+](=O)[O-])o1 [Example 57, 5,6-dichloro-1-(2-nitrobenzyl)-2-(5-methyl-2-furyl)benzimidazole] | – |
| 9.56 | Cc1ccc(-c2nc3cc(Cl)c(Cl)cc3n2Cc2ccc(Cl)cc2)o1 [Example 58, 5,6-Dichloro-1-(4-chlorobenzyl)-2-(5-methyl-2-furyl)benzimidazole] | – |
| 3.74 | Cc1ccc(-c2nc3cc(Cl)c(Cl)cc3n2Cc2cccc(Cl)c2)o1 [Example 59, 5,6-dichloro-1-(3-chlorobenzyl)-2-(5-methyl-2-furyl)benzimidazole] | – |
| 42.9 | Cc1ccc(-c2nc3cc(Cl)c(Cl)cc3n2Cc2ccccc2Cl)o1 [Example 60, 5,6-dichloro-1-(2-chlorobenzyl)-2-(5-methyl-2-furyl)benzimidazole] | – |
| 26.9 | COc1ccc(Cn2c(-c3ccc(C)o3)nc3cc(Cl)c(Cl)cc32)cc1 [Example 61, 5,6-dichloro-1-(4-methoxybenzyl)-2-(5-methyl-2-furyl)benzimidazole] | – |

| IC50 [1] [µM] | Compound | also measured |
| --- | --- | --- |
| 8.88 | COc1cccc(Cn2c(-c3ccc(C)o3)nc3cc(Cl)c(Cl)cc32)c1 [Example 62, 5,6-Dichloro-1-(3-methoxybenzyl)-2-(5-methyl-2-furyl)benzimidazole] | – |
| 2.68 | Cc1ccc(-c2nc3cc(Cl)c(Cl)cc3n2Cc2ccc(F)cc2)o1 [Example 63, 5,6-dichloro-1-(4-fluorobenzyl)-2-(5-methyl-2-furyl)benzimidazole] | – |
| 1.74 | Cc1ccc(-c2nc3cc(Cl)c(Cl)cc3n2Cc2cccc(F)c2)o1 [Example 64, 5,6-dichloro-1-(3-fluorobenzyl)-2-(5-methyl-2-furyl)benzimidazole] | – |
| 8.32 | Cc1ccc(-c2nc3cc(Cl)c(Cl)cc3n2Cc2ccccc2F)o1 [Example 65, 5,6-dichloro-1-(2-fluorobenzyl)-2-(5-methyl-2-furyl) benzimidazole] | – |
| 40.3 | Cc1ccc(Cn2c(-c3ccc(C)o3)nc3cc(Cl)c(Cl)cc32)cc1 [Example 66, 5,6-dichloro-1-(4-methylbenzyl)-2-(5-methyl-2-furyl)benzimidazole] | – |
| 6.52 | Cc1cccc(Cn2c(-c3ccc(C)o3)nc3cc(Cl)c(Cl)cc32)c1 [Example 67, 5,6-dichloro-1-(3-methylbenzyl)-2-(5-methyl-2-furyl)benzimidazole] | – |
| 5.69 | Cc1ccc(-c2nc3cc(Cl)c(Cl)cc3n2Cc2ccccc2C)o1 [Example 68, 5,6-dichloro-1-(2-methylbenzyl)-2-(5-methyl-2-furyl)benzimidazole] | – |
| > 50 | Cc1ccc(-c2nc3ccc(C(=O)c4ccccc4)cc3[nH]2)o1 [Example 69, 6-benzoyl-2-(5-methyl-2-furyl)benzimidazole] | – |
| 17.2 | Cc1ccc(-c2nc3ccc(C(=O)c4ccccc4)cc3n2Cc2ccccc2)o1 [Example 69a, 1-Benzyl-6-benzoyl-2-(5-methyl-2-furyl)benzimidazole] | – |
| > 50 | Cc1ccc(-c2nc3ccc(C(=O)c4ccccc4)cc3n2Cc2ccc(Cl)cc2)o1 [Example 73, 6-Benzoyl-1-(4-chlorobenzyl)-2-(5-methyl-2-furyl)benzimidazole] | – |
| 19.2 | Cc1ccc(-c2nc3ccc(C(=O)c4ccccc4)cc3n2Cc2cccc(Cl)c2)o1 [Example 74, 6-benzoyl-1-(3-chlorobenzyl)-2-(5-methyl-2-furyl)benzimidazole] | – |
| > 50 | COc1ccc(Cn2c(-c3ccc(C)o3)nc3ccc(C(=O)c4ccccc4)cc32)cc1 [Example 76, 6-benzoyl-1-(4-methoxybenzyl)-2-(5-methyl-2-furyl)benzimidazole] | – |
| > 50 | COc1cccc(Cn2c(-c3ccc(C)o3)nc3ccc(C(=O)c4ccccc4)cc32)c1 [Example 77, 6-benzoyl-1-(3-methoxybenzyl)-2-(5-methyl-2-furyl)benzimidazole] | – |
| 25.8 | Cc1ccc(-c2nc3ccc(C(=O)c4ccccc4)cc3n2Cc2ccc(F)cc2)o1 [Example 78, 6-benzoyl-1-(4-fluorobenzyl)-2-(5-methyl-2-furyl)benzimidazole] | – |
| > 50 | Cc1ccc(-c2nc3ccc(C(=O)c4ccccc4)cc3n2Cc2cccc(F)c2)o1 [Example 79, 6-Benzoyl-1-(3-fluorobenzyl)-2-(5-methyl-2-furyl)benzimidazole] | – |
| > 50 | Cc1ccc(-c2nc3ccc(C(=O)c4ccccc4)cc3n2Cc2ccccc2F)o1 [Example 80, 6-benzoyl-1-(2-fluorobenzyl)-2-(5-methyl-2-furyl)benzimidazole] | – |
| > 50 | Cc1ccc(Cn2c(-c3ccc(C)o3)nc3ccc(C(=O)c4ccccc4)cc32)cc1 [Example 81, 6-benzoyl-1-(4-methylbenzyl)-2-(5-methyl-2-furyl)benzimidazole] | – |
| > 50 | Cc1ccc(-c2nc3ccc(C(=O)c4ccccc4)cc3n2Cc2ccccc2C)o1 [Example 83, 6-benzoyl-1-(2-methylbenzyl)-2-(5-methyl-2-furyl)benzimidazole] | – |
| – | COc1ccc2c(c1)c(CC(=O)O)c(C)n2C(=O)c1ccc(Cl)cc1 [indomethacin, reference compound] | effect on U46619-induced platelet aggregation ([1]; U46619 1 μM, indomethacin concentration not given): without effects |
| – | heparin | time to FeCl3-induced occlusion (mice carotid artery; heparin 10 U kg^−1 or aspirin 40 μg g^−1 i.v.): about 10 min; FeCl3-induced thrombus formation (mice carotid artery; heparin 100 U kg^−1 or aspirin 80 μg g^−1 i.v.): blocked |
